Assay [1] concerns the target T1, Aurora kinase C (Homo sapiens) (UniProt Q9UQB9).
T1 sequence (whole entry): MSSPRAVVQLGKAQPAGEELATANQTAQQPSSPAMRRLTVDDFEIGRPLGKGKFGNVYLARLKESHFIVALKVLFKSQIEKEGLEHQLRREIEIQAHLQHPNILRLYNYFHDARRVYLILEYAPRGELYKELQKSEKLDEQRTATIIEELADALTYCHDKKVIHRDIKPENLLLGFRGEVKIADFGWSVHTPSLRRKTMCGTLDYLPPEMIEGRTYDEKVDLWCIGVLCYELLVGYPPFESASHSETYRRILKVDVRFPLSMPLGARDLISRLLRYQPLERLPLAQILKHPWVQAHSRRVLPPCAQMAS
The following applies: at 10 µM.

Assay [2] has as its target Death-associated protein kinase 3 (Homo sapiens) (UniProt O43293). To be noted: at 10 µM.
In assay [3] the target is Receptor-type tyrosine-protein kinase FLT3 (Homo sapiens) (UniProt P36888). The following applies: at 10 µM.
Chain of Receptor-type tyrosine-protein kinase FLT3 (Homo sapiens) (P36888 whole entry): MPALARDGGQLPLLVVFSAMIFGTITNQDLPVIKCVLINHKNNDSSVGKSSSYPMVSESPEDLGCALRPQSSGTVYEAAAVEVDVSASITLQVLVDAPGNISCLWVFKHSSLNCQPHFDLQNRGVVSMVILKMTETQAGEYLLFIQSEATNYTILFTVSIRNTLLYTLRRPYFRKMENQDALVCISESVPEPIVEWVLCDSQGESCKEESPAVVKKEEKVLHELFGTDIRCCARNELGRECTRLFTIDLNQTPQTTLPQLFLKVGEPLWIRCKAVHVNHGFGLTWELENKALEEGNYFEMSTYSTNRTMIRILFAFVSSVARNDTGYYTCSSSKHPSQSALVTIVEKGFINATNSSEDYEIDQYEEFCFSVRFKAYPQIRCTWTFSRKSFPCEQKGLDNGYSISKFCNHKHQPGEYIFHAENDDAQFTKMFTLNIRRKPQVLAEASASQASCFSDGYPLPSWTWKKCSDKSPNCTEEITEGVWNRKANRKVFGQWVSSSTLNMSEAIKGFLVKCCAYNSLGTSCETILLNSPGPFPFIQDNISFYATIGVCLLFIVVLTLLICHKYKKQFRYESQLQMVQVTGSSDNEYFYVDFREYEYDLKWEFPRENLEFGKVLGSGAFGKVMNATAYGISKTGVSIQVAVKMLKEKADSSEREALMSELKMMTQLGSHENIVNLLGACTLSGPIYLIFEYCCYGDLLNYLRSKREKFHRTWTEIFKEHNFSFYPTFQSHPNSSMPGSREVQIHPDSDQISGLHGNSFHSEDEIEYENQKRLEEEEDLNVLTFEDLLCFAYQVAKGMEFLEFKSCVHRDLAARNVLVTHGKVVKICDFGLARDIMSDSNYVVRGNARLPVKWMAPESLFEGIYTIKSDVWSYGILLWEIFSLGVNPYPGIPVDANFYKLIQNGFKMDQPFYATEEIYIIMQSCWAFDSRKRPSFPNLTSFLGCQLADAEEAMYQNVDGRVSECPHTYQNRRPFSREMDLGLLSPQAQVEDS
For assay [4], the target named is T2, Ephrin type-B receptor 3 (Homo sapiens) (UniProt P54753).
T2 sequence (whole entry): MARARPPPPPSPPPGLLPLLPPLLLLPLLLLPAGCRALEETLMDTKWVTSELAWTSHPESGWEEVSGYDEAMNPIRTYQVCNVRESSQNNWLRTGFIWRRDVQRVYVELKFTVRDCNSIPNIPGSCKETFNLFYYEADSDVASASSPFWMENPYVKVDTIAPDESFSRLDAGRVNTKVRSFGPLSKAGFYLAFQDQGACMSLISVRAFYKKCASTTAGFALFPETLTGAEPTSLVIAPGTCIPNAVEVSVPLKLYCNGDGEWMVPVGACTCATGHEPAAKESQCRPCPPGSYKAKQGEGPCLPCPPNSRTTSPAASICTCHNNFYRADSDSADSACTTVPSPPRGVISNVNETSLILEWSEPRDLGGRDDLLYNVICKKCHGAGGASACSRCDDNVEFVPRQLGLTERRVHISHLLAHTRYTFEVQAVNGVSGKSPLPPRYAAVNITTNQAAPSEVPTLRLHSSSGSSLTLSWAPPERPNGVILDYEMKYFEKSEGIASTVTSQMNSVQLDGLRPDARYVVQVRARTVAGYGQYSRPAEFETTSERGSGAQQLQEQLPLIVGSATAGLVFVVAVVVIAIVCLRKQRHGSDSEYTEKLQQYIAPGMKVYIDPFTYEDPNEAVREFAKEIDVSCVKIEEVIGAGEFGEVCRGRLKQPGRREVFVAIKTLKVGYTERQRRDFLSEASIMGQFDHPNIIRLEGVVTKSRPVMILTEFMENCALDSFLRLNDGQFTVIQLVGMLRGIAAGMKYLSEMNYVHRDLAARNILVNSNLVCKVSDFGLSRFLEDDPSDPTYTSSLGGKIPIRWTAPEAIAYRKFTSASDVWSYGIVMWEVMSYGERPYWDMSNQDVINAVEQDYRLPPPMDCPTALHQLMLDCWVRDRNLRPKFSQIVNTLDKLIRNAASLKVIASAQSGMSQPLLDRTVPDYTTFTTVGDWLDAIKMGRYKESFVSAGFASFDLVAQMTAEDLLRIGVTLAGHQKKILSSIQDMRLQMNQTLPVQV
The assay is described as follows: Selectivity interaction (Kinase panel (DSF assay)) EUB0001558a EPHB3.

For assay [5], the target named is Serine/threonine-protein kinase pim-3 (Homo sapiens) (UniProt Q86V86). To be noted: at 10 µM.
Assay [6] deals with T3, Serine/threonine-protein kinase ICK (Homo sapiens) (UniProt Q9UPZ9).
T3 sequence (whole entry): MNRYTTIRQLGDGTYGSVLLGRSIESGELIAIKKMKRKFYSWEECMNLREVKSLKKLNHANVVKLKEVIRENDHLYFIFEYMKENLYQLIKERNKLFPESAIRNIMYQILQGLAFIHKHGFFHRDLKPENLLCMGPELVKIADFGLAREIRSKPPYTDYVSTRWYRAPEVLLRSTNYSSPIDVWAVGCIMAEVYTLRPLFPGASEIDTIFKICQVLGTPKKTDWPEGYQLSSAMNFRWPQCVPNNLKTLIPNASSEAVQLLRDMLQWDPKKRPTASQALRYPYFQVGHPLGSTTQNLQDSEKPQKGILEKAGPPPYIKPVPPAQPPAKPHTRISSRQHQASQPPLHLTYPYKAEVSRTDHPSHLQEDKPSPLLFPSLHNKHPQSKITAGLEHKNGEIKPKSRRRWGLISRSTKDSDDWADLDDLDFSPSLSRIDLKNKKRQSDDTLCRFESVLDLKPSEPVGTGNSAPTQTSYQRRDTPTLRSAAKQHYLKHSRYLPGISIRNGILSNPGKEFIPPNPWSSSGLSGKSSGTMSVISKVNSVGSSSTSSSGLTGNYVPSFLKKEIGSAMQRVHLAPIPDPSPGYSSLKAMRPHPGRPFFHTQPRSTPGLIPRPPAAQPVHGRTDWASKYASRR
The experiment in a line: Selectivity interaction (KinomeScan (DiscoverX)) EUB0001079a ICK. To be noted: at 1 µM.

The target of assay [7] is Vascular endothelial growth factor receptor 2 (Homo sapiens, UniProt P35968). The experiment in a line: Selectivity interaction (Kinase panel (Eurofins)) EUB0001564a KDR. The following applies: at 1 µM.
Chain of Vascular endothelial growth factor receptor 2 (P35968 whole entry): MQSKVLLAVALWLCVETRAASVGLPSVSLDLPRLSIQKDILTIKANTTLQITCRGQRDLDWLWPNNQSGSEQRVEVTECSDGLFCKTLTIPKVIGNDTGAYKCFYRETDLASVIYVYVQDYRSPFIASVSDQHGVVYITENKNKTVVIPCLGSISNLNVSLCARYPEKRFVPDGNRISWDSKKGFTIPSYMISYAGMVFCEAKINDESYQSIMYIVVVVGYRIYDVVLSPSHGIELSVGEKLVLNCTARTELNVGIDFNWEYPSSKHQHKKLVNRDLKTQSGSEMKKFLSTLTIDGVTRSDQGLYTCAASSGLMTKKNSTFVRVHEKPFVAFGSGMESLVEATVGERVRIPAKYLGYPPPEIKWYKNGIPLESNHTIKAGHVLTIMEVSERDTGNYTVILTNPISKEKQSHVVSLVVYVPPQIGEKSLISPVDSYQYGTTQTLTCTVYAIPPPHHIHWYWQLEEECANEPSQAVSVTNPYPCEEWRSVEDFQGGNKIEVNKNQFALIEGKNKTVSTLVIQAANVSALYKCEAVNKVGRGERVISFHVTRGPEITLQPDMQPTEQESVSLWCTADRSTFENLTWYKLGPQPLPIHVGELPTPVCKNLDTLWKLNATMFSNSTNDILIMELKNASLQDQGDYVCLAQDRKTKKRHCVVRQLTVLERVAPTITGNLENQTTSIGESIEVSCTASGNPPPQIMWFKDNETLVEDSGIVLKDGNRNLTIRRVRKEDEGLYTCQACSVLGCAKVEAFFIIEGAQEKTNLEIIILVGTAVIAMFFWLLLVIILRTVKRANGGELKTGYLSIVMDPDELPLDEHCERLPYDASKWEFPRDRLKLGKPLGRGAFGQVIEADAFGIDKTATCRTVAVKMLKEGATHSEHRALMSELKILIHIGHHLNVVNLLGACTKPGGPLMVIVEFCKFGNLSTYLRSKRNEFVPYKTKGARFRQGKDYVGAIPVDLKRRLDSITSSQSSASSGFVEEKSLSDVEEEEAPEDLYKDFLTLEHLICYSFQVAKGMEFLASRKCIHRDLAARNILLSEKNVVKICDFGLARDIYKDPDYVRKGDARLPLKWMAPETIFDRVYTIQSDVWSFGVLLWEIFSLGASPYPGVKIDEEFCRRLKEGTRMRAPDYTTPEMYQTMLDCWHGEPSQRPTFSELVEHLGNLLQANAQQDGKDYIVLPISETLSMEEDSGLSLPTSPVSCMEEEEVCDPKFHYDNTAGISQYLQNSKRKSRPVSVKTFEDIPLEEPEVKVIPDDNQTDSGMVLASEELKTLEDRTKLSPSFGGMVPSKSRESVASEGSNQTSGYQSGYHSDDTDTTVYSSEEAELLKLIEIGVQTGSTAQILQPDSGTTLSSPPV
Assay [8] has as its target G protein-coupled receptor kinase 6 (Homo sapiens) (UniProt P43250). The experiment in a line: Selectivity interaction (Kinase panel (Z-LYTE Assay)) EUB0001632a GRK6. The following applies: at 10 µM.
Another assay concerns the target Ephrin type-A receptor 4 (Homo sapiens, UniProt P54764). The assay is described as follows: Selectivity interaction (KinomeScan (DiscoverX)) EUB0000607a EPHA4. The following applies: at 10 µM.
The target of assay [9] is Tyrosine-protein kinase HCK (Homo sapiens) (UniProt P08631). The experiment in a line: Selectivity interaction (ActivX KiNativ screen (kinase selectivity in THP-1 cell lysates)) EUB0000639a HCK. The format is subcellular. To be noted: lysate, at 1 µM.
Chain of Tyrosine-protein kinase HCK (Homo sapiens) (P08631 2-526 limits assumed): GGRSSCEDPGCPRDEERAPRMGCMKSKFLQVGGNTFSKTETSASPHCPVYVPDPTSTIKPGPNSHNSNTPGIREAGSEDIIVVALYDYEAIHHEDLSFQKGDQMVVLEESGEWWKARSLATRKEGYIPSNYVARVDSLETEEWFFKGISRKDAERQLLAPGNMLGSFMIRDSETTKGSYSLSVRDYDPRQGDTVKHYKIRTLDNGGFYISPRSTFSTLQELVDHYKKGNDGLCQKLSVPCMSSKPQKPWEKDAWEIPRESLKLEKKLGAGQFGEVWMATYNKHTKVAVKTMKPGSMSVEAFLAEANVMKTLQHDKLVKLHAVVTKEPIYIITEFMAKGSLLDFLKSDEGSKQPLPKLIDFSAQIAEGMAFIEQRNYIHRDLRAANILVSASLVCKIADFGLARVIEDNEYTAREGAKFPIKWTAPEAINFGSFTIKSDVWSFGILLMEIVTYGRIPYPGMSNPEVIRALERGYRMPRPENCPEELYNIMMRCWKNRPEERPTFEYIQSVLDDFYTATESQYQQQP
Assay [10] deals with T4, Muscarinic acetylcholine receptor M2 (Homo sapiens) (UniProt P08172).
T4 sequence (whole entry): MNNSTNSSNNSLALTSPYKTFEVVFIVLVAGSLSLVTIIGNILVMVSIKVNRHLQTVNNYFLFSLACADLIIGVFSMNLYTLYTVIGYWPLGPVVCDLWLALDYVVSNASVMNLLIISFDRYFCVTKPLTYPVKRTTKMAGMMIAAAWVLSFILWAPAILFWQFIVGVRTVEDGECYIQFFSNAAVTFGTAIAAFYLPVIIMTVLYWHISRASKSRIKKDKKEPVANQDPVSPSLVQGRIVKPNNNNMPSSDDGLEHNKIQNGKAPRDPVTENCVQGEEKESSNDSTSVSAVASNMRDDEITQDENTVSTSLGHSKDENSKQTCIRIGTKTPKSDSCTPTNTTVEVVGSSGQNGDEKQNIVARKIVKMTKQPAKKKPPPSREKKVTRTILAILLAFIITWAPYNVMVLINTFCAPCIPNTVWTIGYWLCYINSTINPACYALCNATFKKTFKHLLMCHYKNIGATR
The assay is described as follows: Selectivity interaction (Safety Panel 44tm (Eurofins)) EUB0000162b CHRM2. To be noted: at 10 µM.

This passage reports % of control, dTM and % of inhibition results from ChEMBL document CHEMBL5465560, “Selectivity Literature for EUbOPEN Chemogenomic Library” (2024).

Chain of G protein-coupled receptor kinase 6 (Homo sapiens) (P43250 whole entry, looked up): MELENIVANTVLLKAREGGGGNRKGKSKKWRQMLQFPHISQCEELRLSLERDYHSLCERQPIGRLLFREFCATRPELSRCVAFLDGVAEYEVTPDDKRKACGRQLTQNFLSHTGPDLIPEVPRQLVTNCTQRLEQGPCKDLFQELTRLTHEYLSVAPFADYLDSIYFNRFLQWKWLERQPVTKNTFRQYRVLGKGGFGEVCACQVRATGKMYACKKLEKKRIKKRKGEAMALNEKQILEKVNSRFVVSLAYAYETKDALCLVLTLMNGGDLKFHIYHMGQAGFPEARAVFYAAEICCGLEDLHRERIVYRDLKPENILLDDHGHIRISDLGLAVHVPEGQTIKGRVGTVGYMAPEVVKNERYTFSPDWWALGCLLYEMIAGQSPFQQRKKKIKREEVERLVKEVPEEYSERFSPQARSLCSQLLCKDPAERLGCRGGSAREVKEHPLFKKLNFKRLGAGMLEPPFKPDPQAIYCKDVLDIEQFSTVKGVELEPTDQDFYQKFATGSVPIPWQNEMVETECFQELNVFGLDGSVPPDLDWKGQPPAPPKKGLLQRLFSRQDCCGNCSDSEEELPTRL
Chain of Ephrin type-A receptor 4 (P54764 whole entry): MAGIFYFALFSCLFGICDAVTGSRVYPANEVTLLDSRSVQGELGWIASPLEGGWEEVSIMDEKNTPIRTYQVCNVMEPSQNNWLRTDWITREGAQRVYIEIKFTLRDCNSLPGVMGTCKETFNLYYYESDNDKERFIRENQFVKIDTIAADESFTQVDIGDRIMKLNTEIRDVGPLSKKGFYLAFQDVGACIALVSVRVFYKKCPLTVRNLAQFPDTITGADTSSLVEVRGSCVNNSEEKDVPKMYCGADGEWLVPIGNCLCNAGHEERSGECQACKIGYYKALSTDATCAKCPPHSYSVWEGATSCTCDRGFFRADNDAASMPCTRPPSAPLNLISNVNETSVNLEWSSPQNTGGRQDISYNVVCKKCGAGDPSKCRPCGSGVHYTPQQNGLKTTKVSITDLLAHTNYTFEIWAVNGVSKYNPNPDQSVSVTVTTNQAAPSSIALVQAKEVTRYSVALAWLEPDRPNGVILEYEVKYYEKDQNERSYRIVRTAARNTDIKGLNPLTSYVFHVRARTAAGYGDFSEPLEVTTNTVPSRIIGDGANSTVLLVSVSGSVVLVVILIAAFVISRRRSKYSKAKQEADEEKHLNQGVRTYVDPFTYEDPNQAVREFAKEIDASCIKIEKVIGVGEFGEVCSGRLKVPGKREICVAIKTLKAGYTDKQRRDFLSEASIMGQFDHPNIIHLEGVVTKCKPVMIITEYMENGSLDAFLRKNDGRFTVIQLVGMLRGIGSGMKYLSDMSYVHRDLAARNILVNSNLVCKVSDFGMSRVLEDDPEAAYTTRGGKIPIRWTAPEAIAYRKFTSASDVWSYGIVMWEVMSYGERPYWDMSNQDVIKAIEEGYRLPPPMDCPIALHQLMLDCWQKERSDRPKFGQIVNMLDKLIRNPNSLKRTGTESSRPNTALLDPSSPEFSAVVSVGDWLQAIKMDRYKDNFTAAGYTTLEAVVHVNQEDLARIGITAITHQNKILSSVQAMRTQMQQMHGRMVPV
Chain of Death-associated protein kinase 3 (Homo sapiens) (O43293 whole entry, looked up): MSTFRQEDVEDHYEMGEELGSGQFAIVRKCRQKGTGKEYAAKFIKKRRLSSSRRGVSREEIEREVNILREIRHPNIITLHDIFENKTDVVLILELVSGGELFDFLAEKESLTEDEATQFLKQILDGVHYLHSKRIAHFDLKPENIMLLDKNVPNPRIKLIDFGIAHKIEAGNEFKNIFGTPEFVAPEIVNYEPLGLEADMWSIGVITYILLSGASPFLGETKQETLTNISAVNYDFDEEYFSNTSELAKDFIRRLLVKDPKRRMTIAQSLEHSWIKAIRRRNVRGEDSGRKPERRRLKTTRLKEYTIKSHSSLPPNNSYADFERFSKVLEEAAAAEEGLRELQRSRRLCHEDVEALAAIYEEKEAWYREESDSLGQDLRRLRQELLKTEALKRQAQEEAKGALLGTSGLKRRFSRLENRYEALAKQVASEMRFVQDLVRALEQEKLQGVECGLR

`Cc1cc([C@@H](C)Nc2ccccc2C(=O)O)c2nc(N3CCOCC3)cc(=O)n2c1` [AZD-6482]: the % of control stood at 93% in [1], 100% in assay [2] and 13% in [3]. On to `CC(C)(O)[C@H](F)CN1Cc2cc(NC(=O)c3cnn4cccnc34)c(N3CCOCC3)cc2C1=O`, for which, in assay [4], the dTM was determined as 2.1 K. `CCN(CC)CCCCNc1ncc2cc(-c3cc(OC)cc(OC)c3)c(NC(=O)NC(C)(C)C)nc2n1`: the % of control in assay [5] was 100%. For the molecule `Nc1cnc(N2CCc3cc(S(=O)(=O)Nc4c(F)cc(Cl)cc4F)cc(N4CCCC4=O)c32)nc1` [TP-020n], in [6], the % of control turned out to be 80%. Regarding `CC[C@@H](Nc1c(C#N)c(-c2ccc(-c3cccc(C)c3F)cc2)nc2cnccc12)C(=O)O` [BAY-091], in [7], the % of inhibition was 50.1%. With `Cn1cc(-n2cnc3c(NCc4nc5cc(Cl)c(Cl)cc5[nH]4)nc(N4CCOCC4)nc32)cn1`, the % of control in assay [8] was -1.29%.

For the molecule `CNC(=O)Nc1ccc(-c2nc(N3CC4CCC(C3)O4)c3cnn(C4CCC5(CC4)OCCO5)c3n2)cc1`, the % of control at Ephrin type-A receptor 4 came to 100%. Consider `CC[C@@H]1[C@H](F)C(=O)N[C@@H]1COc1nccc2cc(C(N)=O)c(OC)cc12` [ZIMLOVISERTIB], for which the % of inhibition in [9] is -16.5%.

Turning to `CN(C)C(=O)Cn1cc(-c2ccc(-c3cncc4ccccc34)cc2)cn1`, the % of control in assay [10] turned out to be 84%.
